Assay results as given in publication PMC7615656 (European journal of pharmacology, 2010).

Key:
[1] = target: recombinant rat α4β3γ2F77I receptors (Rattus norvegicus, UniProt P18508+P28471, F115I); experiment: Two-electrode voltage clamp of GABA-induced chloride currents in Xenopus oocytes; type: cell-based; details: ns = not significant
[2] = target: recombinant rat α4β3γ2 receptors (Rattus norvegicus, UniProt P18508+P28471); experiment: as above; type: cell-based; details: for efficacy (% GABA EC3): α4β3γ2, ns = not significant
[3] = target: recombinant rat α5β3γ2 receptors (Rattus norvegicus, UniProt P18508+P19969); experiment: as above; type: cell-based; details: for efficacy (% GABA EC3): α5β3γ2, ns = not significant
[4] = target: recombinant rat α3β3γ2F77I receptors (Rattus norvegicus, UniProt P18508+P20236, F115I); experiment: as above; type: cell-based; details: α3β3γ2F77I, ns = not significant
[5] = target: recombinant rat α1β3γ2F77I receptors (Rattus norvegicus, UniProt P18508+P62813, F115I); experiment: as above; type: cell-based; details: α1β3γ2F77I; for efficacy (% GABA EC3): ns = not significant
recombinant rat α1β3γ2F77I receptors, sequence (P62813 28-455): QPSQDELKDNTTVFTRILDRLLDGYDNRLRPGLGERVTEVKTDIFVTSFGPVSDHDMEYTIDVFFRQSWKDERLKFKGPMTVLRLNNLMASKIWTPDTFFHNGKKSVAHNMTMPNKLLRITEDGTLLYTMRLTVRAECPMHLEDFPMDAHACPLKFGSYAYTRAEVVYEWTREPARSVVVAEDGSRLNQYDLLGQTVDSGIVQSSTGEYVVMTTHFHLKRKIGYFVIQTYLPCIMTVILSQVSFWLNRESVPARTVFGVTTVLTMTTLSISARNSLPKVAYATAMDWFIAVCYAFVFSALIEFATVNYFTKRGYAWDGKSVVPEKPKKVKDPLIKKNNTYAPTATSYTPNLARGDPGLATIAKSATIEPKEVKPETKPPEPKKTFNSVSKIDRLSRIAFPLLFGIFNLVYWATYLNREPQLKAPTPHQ
recombinant rat α1β3γ2F77I receptors, sequence (P63079 26-473 partner): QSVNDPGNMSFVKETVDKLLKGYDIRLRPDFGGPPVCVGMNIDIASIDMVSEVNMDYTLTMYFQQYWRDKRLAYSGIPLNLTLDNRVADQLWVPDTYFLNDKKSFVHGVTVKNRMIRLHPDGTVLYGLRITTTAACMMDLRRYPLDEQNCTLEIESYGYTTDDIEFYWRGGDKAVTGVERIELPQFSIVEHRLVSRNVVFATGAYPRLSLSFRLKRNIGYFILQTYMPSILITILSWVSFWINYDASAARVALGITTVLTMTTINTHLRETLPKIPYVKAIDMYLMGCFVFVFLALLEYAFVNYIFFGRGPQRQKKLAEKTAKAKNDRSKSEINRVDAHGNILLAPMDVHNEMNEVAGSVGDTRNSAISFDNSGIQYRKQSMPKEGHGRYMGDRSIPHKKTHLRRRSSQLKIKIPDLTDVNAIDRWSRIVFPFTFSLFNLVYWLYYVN
recombinant rat α1β3γ2F77I receptors, sequence (P18508 39-466 F115I): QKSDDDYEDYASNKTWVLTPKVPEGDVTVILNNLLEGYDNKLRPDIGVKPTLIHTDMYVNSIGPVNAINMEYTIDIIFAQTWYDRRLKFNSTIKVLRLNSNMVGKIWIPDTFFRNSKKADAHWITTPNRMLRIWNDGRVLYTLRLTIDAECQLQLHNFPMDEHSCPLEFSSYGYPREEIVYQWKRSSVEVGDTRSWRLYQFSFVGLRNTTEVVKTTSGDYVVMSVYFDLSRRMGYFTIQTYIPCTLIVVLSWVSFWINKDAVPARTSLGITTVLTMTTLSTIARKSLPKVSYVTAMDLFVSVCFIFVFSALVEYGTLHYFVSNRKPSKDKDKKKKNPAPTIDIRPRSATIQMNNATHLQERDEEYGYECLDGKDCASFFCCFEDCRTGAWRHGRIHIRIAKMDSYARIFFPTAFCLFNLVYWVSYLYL

[6] = target: recombinant rat α3β3γ2 receptors (Rattus norvegicus, UniProt P18508+P20236); experiment: as above; type: cell-based; details: for efficacy (% GABA EC3): α3β3γ2, ns = not significant
recombinant rat α3β3γ2 receptors, sequence (P20236 29-493): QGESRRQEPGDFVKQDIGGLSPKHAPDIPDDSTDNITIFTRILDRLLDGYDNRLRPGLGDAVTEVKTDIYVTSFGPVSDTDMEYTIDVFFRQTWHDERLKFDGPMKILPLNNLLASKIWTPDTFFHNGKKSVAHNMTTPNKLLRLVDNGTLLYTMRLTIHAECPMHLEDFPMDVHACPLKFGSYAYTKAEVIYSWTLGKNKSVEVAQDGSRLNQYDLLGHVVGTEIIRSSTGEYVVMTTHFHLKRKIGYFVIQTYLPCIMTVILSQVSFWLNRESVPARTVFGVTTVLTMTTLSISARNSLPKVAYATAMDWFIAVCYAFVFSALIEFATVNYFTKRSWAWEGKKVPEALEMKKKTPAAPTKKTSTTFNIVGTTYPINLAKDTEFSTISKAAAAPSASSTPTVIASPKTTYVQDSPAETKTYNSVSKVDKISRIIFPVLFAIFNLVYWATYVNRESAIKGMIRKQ
recombinant rat α3β3γ2 receptors, sequence (P63079 26-473 partner): as the sequence (P63079 26-473 partner) above
recombinant rat α3β3γ2 receptors, sequence (P18508 39-466): as the sequence (P18508 39-466 F115I) above, with I77F counted along it

α5 receptors = details: ref Atack et al., 2006; Quirk et al., 1996; cited from earlier work
[7] = target: recombinant rat α5β3γ2F77I receptors (Rattus norvegicus, UniProt P18508+P19969, F115I); experiment: Two-electrode voltage clamp of GABA-induced chloride currents in Xenopus oocytes; type: cell-based; details: α5β3γ2F77I, ns = not significant
[8] = target: recombinant rat α6β3γ2 receptors (Rattus norvegicus, UniProt P18508+P30191); experiment: as above; type: cell-based; details: for efficacy (% GABA EC3): α6β3γ2, ns = not significant
[9] = target: recombinant rat α6β3γ2F77I receptors (Rattus norvegicus, UniProt P18508+P30191, F115I); experiment: as above; type: cell-based; details: ns = not significant
[10] = target: recombinant rat α2β3γ2F77I receptors (Rattus norvegicus, UniProt P18508+P23576, F115I); experiment: as above; type: cell-based; details: α2β3γ2F77I, ns = not significant
[11] = target: recombinant rat α2β3γ2 receptors (Rattus norvegicus, UniProt P18508+P23576); experiment: as above; type: cell-based
[12] = test system: GABAA receptors of mice containing the point mutation γ2F77I; details: receptor binding; ref Ogris et al., 2004; cited from earlier work
α3β3γ2 receptors = details: 10 μM, ref Atack et al., 2006; cited from earlier work
[13] = target: recombinant rat α1β3γ2 receptors (Rattus norvegicus, UniProt P18508+P62813); experiment: Two-electrode voltage clamp of GABA-induced chloride currents in Xenopus oocytes; type: cell-based; details: for efficacy (% GABA EC3): ns = not significant
recombinant rat α1β3γ2 receptors, sequence (P62813 28-455): as the sequence (P62813 28-455) above
recombinant rat α1β3γ2 receptors, sequence (P63079 26-473 partner): as the sequence (P63079 26-473 partner) above
recombinant rat α1β3γ2 receptors, sequence (P18508 39-466): as the sequence (P18508 39-466 F115I) above, with I77F counted along it

[14] = test system: GABAA receptors containing the γ2F77I mutation; experiment: Modulation of GABA EC3 in receptors containing the γ2F77I mutation; type: cell-based, rat; details: 10 μM; some γ2F77I receptors
α1β3 receptors = α1β3 receptors (Rattus norvegicus, UniProt P62813+P63079); experiment: Zn2+ reduction of GABA-induced chloride flux; type: cell-based; details: 10 μM Zn2+, means ± SEM, n=4
α1β3 receptors, sequence (P62813 28-455): as the sequence (P62813 28-455) above
α1β3 receptors, sequence (P63079 26-473): as the sequence (P63079 26-473 partner) above

[15] = read-out: efficacy (% GABA EC3)
[16] = 100 nM, α2β3γ2, ns = not significant

Structure (SMILES): CCOC(=O)c1ncn2c1C1CCCN1C(=O)c1cc(OC)ccc1-2 [L-655,708, ethyl-7-methoxy-11,12,13,13a-tetrahydro-9-oxo-9H-imidazo[1,5-a]pyrrolo[2,1-c][1,4] benzodiazepine-1-carboxylate]
- efficacy (% GABA EC3) ([1]; 10 nM): ns
- efficacy (% GABA EC3) ([1]; 100 nM): ns
- efficacy (% GABA EC3) ([1]; 1 μM): ns
- efficacy (% GABA EC3) ([1]; 10 μM): ns
- EC50 [2]: 168 ± 71 nM
- efficacy (% GABA EC3) ([2]; 10 nM): ns
- activity at 0.1 µM [2, 15]: 143 ± 12%
- activity at 1 µM [2, 15]: 215 ± 4%
- activity at 10 µM [2, 15]: 224 ± 15%
- efficacy (% GABA EC3) ([3]; 10 nM): ns
- activity at 0.1 µM [3, 15]: 91 ± 1%
- activity at 1 µM [3, 15]: 84 ± 5%
- activity at 10 µM [3, 15]: 66 ± 7%
- efficacy (% GABA EC3) ([4]; 10 nM): ns
- efficacy (% GABA EC3) ([4]; 100 nM): ns
- efficacy (% GABA EC3) ([4]; 1 μM): ns
- efficacy (% GABA EC3) ([4]; 10 μM): ns
- efficacy (% GABA EC3) ([5]; 10 nM): ns
- efficacy (% GABA EC3) ([5]; 100 nM): ns
- efficacy (% GABA EC3) ([5]; 1 μM): ns
- efficacy (% GABA EC3) ([5]; 10 μM): ns
- EC50 [6]: 10 ± 3 nM
- activity at 0.01 µM [6, 15]: 113 ± 1%
- activity at 0.1 µM [6, 15]: 126 ± 1%
- activity at 1 µM [6, 15]: 131 ± 4%
- activity at 10 µM [6, 15]: 126 ± 4%
- selectivity for α5 receptors in receptor binding assays (α5 receptors): 30–50 fold
- efficacy (% GABA EC3) ([7]; 10 nM): ns
- efficacy (% GABA EC3) ([7]; 100 nM): ns
- efficacy (% GABA EC3) ([7]; 1 μM): ns
- efficacy (% GABA EC3) ([7]; 10 μM): ns
- EC50 [8]: > 470 nM
- activity at 0.01 µM [8, 15]: 118 ± 4%
- activity at 0.1 µM [8, 15]: 131 ± 12%
- activity at 1 µM [8, 15]: 176 ± 25%
- activity at 10 µM [8, 15]: 199 ± 31%
- efficacy (% GABA EC3) ([9]; 10 nM): ns
- efficacy (% GABA EC3) ([9]; 100 nM): ns
- efficacy (% GABA EC3) ([9]; 1 μM): ns
- efficacy (% GABA EC3) ([9]; 10 μM): ns
- efficacy (% GABA EC3) ([10]; 10 nM): ns
- efficacy (% GABA EC3) ([10]; 100 nM): ns
- efficacy (% GABA EC3) ([10]; 1 μM): ns
- efficacy (% GABA EC3) ([10]; 10 μM): ns
- efficacy (% GABA EC3) ([11]; 10 nM, α2β3γ2, ns = not significant): ns
- efficacy (% GABA EC3) [11, 16]: ns
- activity at 1 µM ([11]; read-out: efficacy (% GABA EC3), 1 μM, α2β3γ2, ns = not significant): 93 ± 1%
- activity at 10 µM ([11]; read-out: efficacy (% GABA EC3), 10 μM, α2β3γ2, ns = not significant): 90%
- shift in affinity caused by γ2F77I [12]: > 1000 fold
- reduction of GABA-induced chloride flux to (α3β3γ2 receptors): 90%
- efficacy (% GABA EC3) ([13]; 10 nM, α1β3γ2): ns
- efficacy (% GABA EC3) ([13]; 100 nM, α1β3γ2): ns
- efficacy (% GABA EC3) ([13]; 1 μM, α1β3γ2): ns
- efficacy (% GABA EC3) ([13]; 10 μM, α1β3γ2): 90 ± 4 % GABA EC3
- activity at 10 µM [13, 15]: 90%

Structure (SMILES): CN1CCN(C(=O)OC2c3nccnc3C(=O)N2c2ccc(Cl)cn2)CC1 (stereo not shown) [Zopiclone, 4-methyl-1-piperazinecarboxylic acid-6-(5-chloro-2-pyridinyl)-6,7-dihydro-7-oxo-5H-pyrrolo[3,4-b]pyrazin-5-yl ester]
- efficacy (% GABA EC3) ([2]; 1 μM): ns
- efficacy (% GABA EC3) ([2]; 10 μM): ns
- efficacy (% GABA EC3) ([2]; 10 μM, listed as zopiclone): did not significantly stimulate
- EC50 [3]: 176 ± 1 nM
- efficacy (% GABA EC3) ([3]; 100 nM): 191 ± 8 % GABA EC3
- efficacy (% GABA EC3) ([3]; 1 μM): 313 ± 18 % GABA EC3
- efficacy (% GABA EC3) ([3]; 10 μM): 345 ± 22 % GABA EC3
- stimulation of GABA-induced chloride flux [14]: 20–40%
- efficacy (% GABA EC3) ([4]; 100 nM): ns
- efficacy (% GABA EC3) ([4]; 1 μM): 107 ± 1 % GABA EC3
- efficacy (% GABA EC3) ([4]; 10 μM): 119 ± 4 % GABA EC3
- efficacy (% GABA EC3) ([5]; 100 nM): ns
- efficacy (% GABA EC3) ([5]; 1 μM): ns
- efficacy (% GABA EC3) ([5]; 10 μM): 125 ± 3 % GABA EC3
- EC50 [6]: > 793 nM
- efficacy (% GABA EC3) ([6]; 100 nM): 161 ± 10 % GABA EC3
- efficacy (% GABA EC3) ([6]; 1 μM): 377 ± 24 % GABA EC3
- efficacy (% GABA EC3) ([6]; 10 μM): 559 ± 30 % GABA EC3
- efficacy (% GABA EC3) ([7]; 100 nM): ns
- efficacy (% GABA EC3) ([7]; 1 μM): 114 ± 2 % GABA EC3
- efficacy (% GABA EC3) ([7]; 10 μM): 144 ± 1 % GABA EC3
- efficacy (% GABA EC3) ([8]; 1 μM): ns
- efficacy (% GABA EC3) ([8]; 10 μM): ns
- efficacy (% GABA EC3) ([8]; 10 μM, listed as zopiclone): did not significantly stimulate
- efficacy (% GABA EC3) ([10]; 100 nM): ns
- efficacy (% GABA EC3) ([10]; 1 μM): ns
- efficacy (% GABA EC3) ([10]; 10 μM): 121 ± 2 % GABA EC3
- EC50 [11]: 400 ± 64 nM
- efficacy (% GABA EC3) [11, 16]: 157 ± 9 % GABA EC3
- efficacy (% GABA EC3) ([11]; 1 μM, α2β3γ2, ns = not significant): 289 ± 16 % GABA EC3
- efficacy (% GABA EC3) ([11]; 10 μM, α2β3γ2, ns = not significant): 356 ± 22 % GABA EC3
- shift in affinity caused by γ2F77I [12]: ~100 fold
- EC50 [13]: 163 ± 19 nM
- efficacy (% GABA EC3) ([13]; 100 nM, α1β3γ2): 211 ± 17 % GABA EC3
- efficacy (% GABA EC3) ([13]; 1 μM, α1β3γ2): 347 ± 35 % GABA EC3
- efficacy (% GABA EC3) ([13]; 10 μM, α1β3γ2): 383 ± 36 % GABA EC3

Structure (SMILES): [Zn+2] [Zn^2+]
- GABA-induced chloride flux reduced to (α1β3 receptors): 5.5 ± 1%
- GABA-induced chloride flux reduced to ([5]; 10 μM Zn2+, means ± SEM, n=4): 75.4 ± 3%
- GABA-induced chloride flux reduced to ([13]; 10 μM Zn2+, α1β3γ2, means ± SEM, n=4): 70.3 ± 3%
